Reference: the supplement of paper PMC10307832

Tests used:
Experiment in all cases: relative viability (nuclei count vs DMSO), 5 days (fraction); higher = more cells survive
A-427 = tested on: A-427
Method in brief: (§1)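 One day after seeding in 1536-well plates, lung cancer cell lines were dosed by pin tool. Dosing was either single-drug or a fixed anchor-drug dose plus five library-drug doses (not always all listed) in √10 steps. After 5 days, nuclei were stained in one fix-and-stain step and counted on 4× images, and relative viability is the nuclei count of treated wells over that of vehicle wells, given as the median of duplicate plates.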

BEN = tested on: BEN
Method in brief: as §1

EKVX = tested on: EKVX
Method in brief: as §1

LC-2-ad = tested on: LC-2-ad
Method in brief: as §1

LCLC-97TM1 = tested on: LCLC-97TM1
Method in brief: as §1

LOU-NH91 = tested on: LOU-NH91
Method in brief: as §1

LU99A = tested on: LU99A
Method in brief: as §1

NCI-H1355 = tested on: NCI-H1355
Method in brief: as §1

NCI-H1650 = tested on: NCI-H1650
Method in brief: as §1

NCI-H1666 = tested on: NCI-H1666
Method in brief: as §1

NCI-H1793 = tested on: NCI-H1793
Method in brief: as §1

NCI-H1915 = tested on: NCI-H1915
Method in brief: as §1

NCI-H1993 = tested on: NCI-H1993
Method in brief: as §1

NCI-H2228 = tested on: NCI-H2228
Method in brief: as §1

NCI-H2347 = tested on: NCI-H2347
Method in brief: as §1

NCI-H23 = tested on: NCI-H23
Method in brief: as §1

NCI-H460 = tested on: NCI-H460
Method in brief: as §1

NCI-H520 = tested on: NCI-H520
Method in brief: as §1

NCI-H650 = tested on: NCI-H650
Method in brief: as §1

NCI-H838 = tested on: NCI-H838
Method in brief: as §1

PC-3 [JPC-3] = tested on: PC-3 [JPC-3]
Method in brief: as §1

RERF-LC-KJ = tested on: RERF-LC-KJ
Method in brief: as §1

SW 1573 = tested on: SW 1573
Method in brief: as §1

## O=C(O)CCCCC(CCSCc1ccccc1)SCc1ccccc1 (centres undefined) [CPI-613] + CS(=O)(=O)CCNCc1ccc(-c2ccc3ncnc(Nc4ccc(OCc5cccc(F)c5)c(Cl)c4)c3c2)o1 [Lapatinib] (partner 2 µM)
A-427; first compound 5 µM
  relative viability: 0.974
A-427; first compound 15.81 µM
  relative viability: 0.94
A-427; first compound 50 µM
  relative viability: 1.07
A-427; first compound 158.11 µM
  relative viability: 0.996
A-427; first compound 500 µM
  relative viability: 0.948
BEN; first compound 5 µM
  relative viability: 0.673
BEN; first compound 15.81 µM
  relative viability: 0.577
BEN; first compound 50 µM
  relative viability: 0.526
BEN; first compound 158.11 µM
  relative viability: 0.502
BEN; first compound 500 µM
  relative viability: 0.624
EKVX; first compound 5 µM
  relative viability: 0.186
EKVX; first compound 15.81 µM
  relative viability: 0.208
EKVX; first compound 50 µM
  relative viability: 0.218
EKVX; first compound 158.11 µM
  relative viability: 0.193
EKVX; first compound 500 µM
  relative viability: 0.206
LC-2-ad; first compound 5 µM
  relative viability: 0.746
LC-2-ad; first compound 15.81 µM
  relative viability: 0.859
LC-2-ad; first compound 50 µM
  relative viability: 0.868
LC-2-ad; first compound 158.11 µM
  relative viability: 0.255
LC-2-ad; first compound 500 µM
  relative viability: 0.0059
LCLC-97TM1; first compound 5 µM
  relative viability: 1.19
LCLC-97TM1; first compound 15.81 µM
  relative viability: 0.906
LCLC-97TM1; first compound 50 µM
  relative viability: 1.07
LCLC-97TM1; first compound 158.11 µM
  relative viability: 1.01
LCLC-97TM1; first compound 500 µM
  relative viability: 0.0553
LOU-NH91; first compound 5 µM
  relative viability: 0.79
LOU-NH91; first compound 15.81 µM
  relative viability: 0.722
LOU-NH91; first compound 50 µM
  relative viability: 0.834
LOU-NH91; first compound 158.11 µM
  relative viability: 0.739
LOU-NH91; first compound 500 µM
  relative viability: 0.699
LU99A; first compound 5 µM
  relative viability: 0.937
LU99A; first compound 15.81 µM
  relative viability: 0.918
LU99A; first compound 50 µM
  relative viability: 0.887
LU99A; first compound 158.11 µM
  relative viability: 0.608
LU99A; first compound 500 µM
  relative viability: 0.0424
NCI-H1355; first compound 5 µM
  relative viability: 1.02
NCI-H1355; first compound 15.81 µM
  relative viability: 0.872
NCI-H1355; first compound 50 µM
  relative viability: 0.979
NCI-H1355; first compound 158.11 µM
  relative viability: 0.642
NCI-H1355; first compound 500 µM
  relative viability: 0.589
NCI-H1650; first compound 5 µM
  relative viability: 0.584
NCI-H1650; first compound 15.81 µM
  relative viability: 0.662
NCI-H1650; first compound 50 µM
  relative viability: 0.719
NCI-H1650; first compound 158.11 µM
  relative viability: 0.082
NCI-H1650; first compound 500 µM
  relative viability: 0.023
NCI-H1666; first compound 5 µM
  relative viability: 0.629
NCI-H1666; first compound 15.81 µM
  relative viability: 0.555
NCI-H1666; first compound 50 µM
  relative viability: 0.656
NCI-H1666; first compound 158.11 µM
  relative viability: 0.162
NCI-H1666; first compound 500 µM
  relative viability: 0.109
NCI-H1793; first compound 5 µM
  relative viability: 0.683
NCI-H1793; first compound 50 µM
  relative viability: 0.732
NCI-H1793; first compound 158.11 µM
  relative viability: 0.306
NCI-H1793; first compound 500 µM
  relative viability: 0.0696
NCI-H1915; first compound 5 µM
  relative viability: 0.948
NCI-H1915; first compound 15.81 µM
  relative viability: 1.02
NCI-H1915; first compound 50 µM
  relative viability: 0.948
NCI-H1915; first compound 158.11 µM
  relative viability: 0.873
NCI-H1915; first compound 500 µM
  relative viability: 0.832
NCI-H1993; first compound 5 µM
  relative viability: 0.777
NCI-H1993; first compound 15.81 µM
  relative viability: 0.706
NCI-H1993; first compound 50 µM
  relative viability: 0.774
NCI-H1993; first compound 158.11 µM
  relative viability: 0.567
NCI-H1993; first compound 500 µM
  relative viability: 0.41
NCI-H2228; first compound 5 µM
  relative viability: 0.817
NCI-H2228; first compound 15.81 µM
  relative viability: 0.979
NCI-H2228; first compound 50 µM
  relative viability: 0.832
NCI-H2228; first compound 158.11 µM
  relative viability: 0.406
NCI-H2228; first compound 500 µM
  relative viability: 0.0151
NCI-H2347; first compound 5 µM
  relative viability: 0.986
NCI-H2347; first compound 15.81 µM
  relative viability: 0.846
NCI-H2347; first compound 50 µM
  relative viability: 0.762
NCI-H2347; first compound 158.11 µM
  relative viability: 0.563
NCI-H2347; first compound 500 µM
  relative viability: 0.766
NCI-H23; first compound 5 µM
  relative viability: 0.95
NCI-H23; first compound 15.81 µM
  relative viability: 0.812
NCI-H23; first compound 50 µM
  relative viability: 0.873
NCI-H23; first compound 158.11 µM
  relative viability: 0.261
NCI-H23; first compound 500 µM
  relative viability: 0.0192
NCI-H460; first compound 5 µM
  relative viability: 0.87
NCI-H460; first compound 15.81 µM
  relative viability: 0.853
NCI-H460; first compound 50 µM
  relative viability: 0.838
NCI-H460; first compound 158.11 µM
  relative viability: 0.243
NCI-H460; first compound 500 µM
  relative viability: 0.0072
NCI-H520; first compound 5 µM
  relative viability: 0.887
NCI-H520; first compound 15.81 µM
  relative viability: 0.634
NCI-H520; first compound 50 µM
  relative viability: 0.912
NCI-H520; first compound 158.11 µM
  relative viability: 0.264
NCI-H520; first compound 500 µM
  relative viability: 0.103
NCI-H650; first compound 5 µM
  relative viability: 1.05
NCI-H650; first compound 15.81 µM
  relative viability: 0.913
NCI-H650; first compound 50 µM
  relative viability: 1.11
NCI-H650; first compound 158.11 µM
  relative viability: 0.84
NCI-H650; first compound 500 µM
  relative viability: 0.724
NCI-H838; first compound 5 µM
  relative viability: 0.862
NCI-H838; first compound 15.81 µM
  relative viability: 0.783
NCI-H838; first compound 50 µM
  relative viability: 0.846
NCI-H838; first compound 158.11 µM
  relative viability: 0.601
NCI-H838; first compound 500 µM
  relative viability: 0.0634
PC-3 [JPC-3]; first compound 5 µM
  relative viability: 0.493
PC-3 [JPC-3]; first compound 15.81 µM
  relative viability: 0.439
PC-3 [JPC-3]; first compound 50 µM
  relative viability: 0.425
PC-3 [JPC-3]; first compound 158.11 µM
  relative viability: 0.415
PC-3 [JPC-3]; first compound 500 µM
  relative viability: 0.407
RERF-LC-KJ; first compound 5 µM
  relative viability: 0.857
RERF-LC-KJ; first compound 15.81 µM
  relative viability: 0.826
RERF-LC-KJ; first compound 50 µM
  relative viability: 0.782
RERF-LC-KJ; first compound 158.11 µM
  relative viability: 0.854
RERF-LC-KJ; first compound 500 µM
  relative viability: 0.819
SW 1573; first compound 5 µM
  relative viability: 1.24
SW 1573; first compound 15.81 µM
  relative viability: 1.06
SW 1573; first compound 50 µM
  relative viability: 1.13
SW 1573; first compound 158.11 µM
  relative viability: 1.06
SW 1573; first compound 500 µM
  relative viability: 1
